Experimental data from patent US10828305B2 (SHANGHAI PHARMACEUTICALS HOLDING CO., LTD., priority 2016, dated 2020).

Tests used:
EGFR kinase = EGFR kinase (Homo sapiens, UniProt P00533); assay: Enzymatic experiment on EGFR (HTRF kinEASE-TK); type: biochemical; settings: ATP 1.65 μM; read-out: Kinase IC50 (nM) in vitro EGFR
Procedure, shortened: (§1)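 HTRF kinEASE-TK with biotinylated TK substrate in HEPES pH 7.0 buffer containing MnCl2, MgCl2 and DTT; ErbB2 at 0.06 ng/μl with 4 μM ATP, EGFR at 0.06 units/μl with 1.65 μM ATP, 30 min at room temperature after 5 min enzyme/substrate–compound preincubation. Ten-point 3-fold dilutions; Eu antibody/SA-XL665 detection, 665/620 ratio.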

ErbB2 kinase = ErbB2 kinase (Homo sapiens, UniProt P04626); assay: Enzymatic experiment on ErbB2 (HTRF kinEASE-TK); type: biochemical; settings: ATP 4 μM; read-out: Kinase IC50 (nM) in vitro ErbB2
Chain of ErbB2 kinase (P04626 23-1255): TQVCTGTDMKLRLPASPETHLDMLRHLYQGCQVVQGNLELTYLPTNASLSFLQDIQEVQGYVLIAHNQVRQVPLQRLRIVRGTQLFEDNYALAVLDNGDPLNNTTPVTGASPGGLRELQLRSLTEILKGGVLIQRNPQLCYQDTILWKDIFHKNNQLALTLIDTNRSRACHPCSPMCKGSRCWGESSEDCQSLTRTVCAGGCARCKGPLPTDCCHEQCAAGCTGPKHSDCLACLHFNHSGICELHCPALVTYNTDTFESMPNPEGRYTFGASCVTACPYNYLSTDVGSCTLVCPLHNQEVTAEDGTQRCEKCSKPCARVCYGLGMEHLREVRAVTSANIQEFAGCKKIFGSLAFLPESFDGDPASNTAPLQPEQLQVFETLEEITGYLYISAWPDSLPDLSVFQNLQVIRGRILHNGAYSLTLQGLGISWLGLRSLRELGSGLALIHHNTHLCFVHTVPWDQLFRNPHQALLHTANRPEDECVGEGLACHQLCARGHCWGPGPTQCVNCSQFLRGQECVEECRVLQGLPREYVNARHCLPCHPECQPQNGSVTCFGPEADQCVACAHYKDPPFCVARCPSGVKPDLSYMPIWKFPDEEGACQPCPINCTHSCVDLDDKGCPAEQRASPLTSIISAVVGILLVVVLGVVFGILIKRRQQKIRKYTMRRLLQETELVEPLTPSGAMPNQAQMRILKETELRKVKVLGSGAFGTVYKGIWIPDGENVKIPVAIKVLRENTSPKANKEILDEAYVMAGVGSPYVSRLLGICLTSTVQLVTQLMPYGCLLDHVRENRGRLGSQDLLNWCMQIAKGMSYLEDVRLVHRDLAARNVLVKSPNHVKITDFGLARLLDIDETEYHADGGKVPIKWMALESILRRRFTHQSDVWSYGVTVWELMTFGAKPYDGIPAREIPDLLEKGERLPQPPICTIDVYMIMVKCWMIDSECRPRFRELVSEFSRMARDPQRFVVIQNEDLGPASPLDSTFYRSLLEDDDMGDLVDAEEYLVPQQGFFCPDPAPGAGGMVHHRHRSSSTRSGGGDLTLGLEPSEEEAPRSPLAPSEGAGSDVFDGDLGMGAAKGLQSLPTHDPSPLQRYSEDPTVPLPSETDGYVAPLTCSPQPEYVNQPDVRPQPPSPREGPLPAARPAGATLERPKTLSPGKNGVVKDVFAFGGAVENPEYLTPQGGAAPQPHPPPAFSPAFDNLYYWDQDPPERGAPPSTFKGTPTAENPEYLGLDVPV
Procedure, shortened: as §1

BT-474 = assay: Proliferation inhibition assay in vitro, BT-474 (CellTiter-Glo); type: cell-based; settings: Homo sapiens, 72 hours, read-out: IC50(nM) cell BT-474
Procedure, shortened: (§2)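 Cells were seeded at 8.8×10^4 cells/mL for BT-474 or 6.6×10^4 cells/mL for N87 and grown overnight. Compound was added at 9 concentrations in duplicate for 72 h at 37 °C, 5% CO2. Viability was measured by CellTiter-Glo.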

N87 = assay: Proliferation inhibition assay in vitro, N87 (CellTiter-Glo); type: cell-based; settings: Homo sapiens; 72 hours; read-out: IC50(nM) cell N87
Procedure, shortened: as §2

[1] = test system: human breast cancer BT-474 xenograft; settings: 50MPK (BID), oral, 20 days
[2] = test system: human gastric cancer NCI-N87 xenograft; assay: HER2 overexpressing human gastric cancer NCI-N87 xenograft model in nude mice; type: in vivo, Balb/c nude mice; settings: 50MPK (BID), oral, 22 days

Chain of EGFR kinase (P00533 25-1210): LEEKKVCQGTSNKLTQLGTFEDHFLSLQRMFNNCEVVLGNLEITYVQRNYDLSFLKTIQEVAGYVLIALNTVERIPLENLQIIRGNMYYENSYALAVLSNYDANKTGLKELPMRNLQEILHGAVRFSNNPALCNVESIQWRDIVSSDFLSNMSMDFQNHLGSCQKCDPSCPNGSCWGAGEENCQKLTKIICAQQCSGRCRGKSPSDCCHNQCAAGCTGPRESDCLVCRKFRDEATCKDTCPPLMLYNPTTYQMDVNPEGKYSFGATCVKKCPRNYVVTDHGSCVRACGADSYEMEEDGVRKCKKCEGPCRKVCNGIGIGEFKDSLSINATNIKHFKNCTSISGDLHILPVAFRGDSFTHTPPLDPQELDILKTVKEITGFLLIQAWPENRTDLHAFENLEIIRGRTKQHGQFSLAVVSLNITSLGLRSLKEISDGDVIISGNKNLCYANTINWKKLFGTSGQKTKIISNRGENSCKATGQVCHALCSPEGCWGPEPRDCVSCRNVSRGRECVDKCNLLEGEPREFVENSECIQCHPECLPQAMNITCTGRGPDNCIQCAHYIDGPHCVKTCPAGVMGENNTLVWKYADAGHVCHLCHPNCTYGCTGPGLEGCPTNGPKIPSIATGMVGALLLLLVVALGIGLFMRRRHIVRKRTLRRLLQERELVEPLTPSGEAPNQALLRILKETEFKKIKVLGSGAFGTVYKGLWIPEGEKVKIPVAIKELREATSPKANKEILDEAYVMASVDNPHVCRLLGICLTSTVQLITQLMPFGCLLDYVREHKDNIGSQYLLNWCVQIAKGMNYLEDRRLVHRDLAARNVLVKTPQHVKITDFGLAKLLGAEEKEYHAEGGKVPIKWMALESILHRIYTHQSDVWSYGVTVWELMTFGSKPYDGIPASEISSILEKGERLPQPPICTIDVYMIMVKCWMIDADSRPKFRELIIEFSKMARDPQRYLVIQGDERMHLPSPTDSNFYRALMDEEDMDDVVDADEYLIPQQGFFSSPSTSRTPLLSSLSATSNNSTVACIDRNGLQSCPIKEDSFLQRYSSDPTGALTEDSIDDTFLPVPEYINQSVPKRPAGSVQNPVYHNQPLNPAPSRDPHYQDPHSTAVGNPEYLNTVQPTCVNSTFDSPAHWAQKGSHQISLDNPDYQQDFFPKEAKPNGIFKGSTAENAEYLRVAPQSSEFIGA

| Structure (SMILES) | IC50 (EGFR kinase) [nM] | IC50 (ErbB2 kinase) [nM] | IC50 (BT-474) [nM] | IC50 (N87) [nM] | tumor volume inhibition rate (GI %) [1] [%] | tumor volume inhibition rate (GI %) [2] [%] |
| --- | --- | --- | --- | --- | --- | --- |
| Cc1cc(Nc2ncnc3ccc(NC4=NC(C)(C)CO4)cc23)cc(C)c1Oc1cc2nncn2cn1 [Embodiment 126, N^4-(4-([1,2,4]triazolo[4,3-c]pyrimidin-7-yloxy)-3,5-dimethylphenyl)-N^6-(4,4-dimethyl-4,5-dihydrooxazol-2-yl)quinazolin-4,6-diamine] | 53 | 6.7 | 143 | 82.9 |  |  |
| C=C(F)C(=O)Nc1cc2c(Nc3ccc(Oc4cc5nncn5cn4)c(C)c3)ncnc2cc1OCC [Embodiment 127, N-(4-((4-([1,2,4]triazolo[4,3-c]pyrimidin-7-yloxy)-3-methylphenyl)amino)-7-ethoxyquinazolin-6-yl)-2-fluoroacrylamide] | 6.6 | 5.6 | 8 | 30.7 |  |  |
| CC(=O)C(=O)Nc1ccc2ncnc(Nc3ccc(Oc4cc5nncn5cn4)c(C)c3)c2c1 [Embodiment 128, N-(4-((4-([1,2,4]triazolo[4,3-c]pyrimidin-7-yloxy)-3-methylphenyl)amino)quinazolin-6-yl)-2-oxopropionamide] | 28.7 | 14.8 | 484 | 868 |  |  |
| CCC1COC(Nc2ccc3ncnc(Nc4ccc(Oc5cc6nncn6cn5)c(C)c4)c3c2)=N1 (stereo not drawn) [Embodiment 129, N^4-(4-([1,2,4]triazolo[4,3-c]pyrimidin-7-yloxy)-3-methylphenyl)-N^6-(4-ethyl-4,5-dihydrooxazol-2-yl)quinazolin-4,6-diamine] | 56.9 | 4.4 | 189 | 121 |  |  |
| CS(=O)(=O)CCNCc1ccc(-c2ccc3ncnc(Nc4ccc(OCc5cccc(F)c5)c(Cl)c4)c3c2)o1 [Lapatinib, reference compound] |  |  |  |  | 19.2 | 87.8 |
